Data from the supplement of paper PMC10307832.

Legend:
Experiment in all cases: relative viability (nuclei count vs DMSO), 5 days (fraction); higher = more cells survive
Irinotecan + Palbociclib = compound: CCc1c2c(nc3ccc(OC(=O)N4CCC(N5CCCCC5)CC4)cc13)-c1cc3c(c(=O)n1C2)COC(=O)[C@]3(O)CC [Irinotecan] + CC(=O)c1c(C)c2cnc(Nc3ccc(N4CCNCC4)cn3)nc2n(C2CCCC2)c1=O [Palbociclib] (partner 0.5 µM)
Procedure, shortened: (§1)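 Relative viability is defined as nuclei in treated wells over nuclei in vehicle wells. Duplicate plates were run and medians reported. Lung cancer cell lines in 1536-well plates were dosed by pin tool one day after seeding, with one drug or with a fixed anchor-drug dose plus five library-drug doses (not always all listed) in √10 steps, and nuclei were counted after 5 days.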

Irinotecan + Navitoclax = compound: CCc1c2c(nc3ccc(OC(=O)N4CCC(N5CCCCC5)CC4)cc13)-c1cc3c(c(=O)n1C2)COC(=O)[C@]3(O)CC [Irinotecan] + CC1(C)CCC(c2ccc(Cl)cc2)=C(CN2CCN(c3ccc(C(=O)NS(=O)(=O)c4ccc(N[C@H](CCN5CCOCC5)CSc5ccccc5)c(S(=O)(=O)C(F)(F)F)c4)cc3)CC2)C1 [Navitoclax] (partner 0.5 µM)
Procedure, shortened: as §1

RU-SKI 43 + Navitoclax = compound: CC[C@@H](C)CNCC(=O)N1CCC2=C([C@@H]1COC3=CC=CC(=C3)C)C=CS2 [RU-SKI 43] + CC1(C)CCC(c2ccc(Cl)cc2)=C(CN2CCN(c3ccc(C(=O)NS(=O)(=O)c4ccc(N[C@H](CCN5CCOCC5)CSc5ccccc5)c(S(=O)(=O)C(F)(F)F)c4)cc3)CC2)C1 [Navitoclax] (partner 0.5 µM)
Procedure, shortened: as §1

MK-8033 + Pemetrexed = compound: Cn1cc(-c2cnc3ccc4ccc(CS(=O)(=O)NCc5ccccn5)cc4c(=O)c3c2)cn1 [MK-8033] + Nc1nc2[nH]cc(CCc3ccc(C(=O)N[C@@H](CCC(=O)O)C(=O)O)cc3)c2c(=O)[nH]1 [Pemetrexed] (partner 0.2 µM)
Procedure, shortened: as §1

Cell Line | relative viability (Irinotecan + Palbociclib; first compound 0.6325 µM) | relative viability (Irinotecan + Palbociclib; first compound 2 µM) | relative viability (Irinotecan + Palbociclib; first compound 6.325 µM) | relative viability (Irinotecan + Palbociclib; first compound 20 µM) | relative viability (Irinotecan + Navitoclax; first compound 0.6325 µM) | relative viability (Irinotecan + Navitoclax; first compound 2 µM) | relative viability (Irinotecan + Navitoclax; first compound 6.325 µM) | relative viability (Irinotecan + Navitoclax; first compound 20 µM) | relative viability (RU-SKI 43 + Navitoclax; first compound 0.1 µM) | relative viability (RU-SKI 43 + Navitoclax; first compound 0.3162 µM) | relative viability (RU-SKI 43 + Navitoclax; first compound 1 µM) | relative viability (RU-SKI 43 + Navitoclax; first compound 3.162 µM) | relative viability (RU-SKI 43 + Navitoclax; first compound 10 µM) | relative viability (MK-8033 + Pemetrexed; first compound 0.02 µM) | relative viability (MK-8033 + Pemetrexed; first compound 0.06325 µM) | relative viability (MK-8033 + Pemetrexed; first compound 0.2 µM) | relative viability (MK-8033 + Pemetrexed; first compound 0.6325 µM) | relative viability (MK-8033 + Pemetrexed; first compound 2 µM)
LOU-NH91 | 0.509 | 0.494 | 0.418 | 0.263 | 0.578 | 0.526 | 0.32 | 0.275 | 0.679 | 0.746 | 0.741 | 0.714 | 0.683 | 0.375 | 0.38 | 0.35 | 0.366 | 0.318
NCI-H1975 | 0.304 | 0.557 | 0.314 | 0.219 | 1.06 | 1.11 | 0.411 | 0.167 | 1.06 | 1.45 | 1.07 | 1.07 | 1.07 | 0.263 | 0.259 | 0.276 | 0.281 | 0.288
SW 1573 | – | 0.329 | 0.181 | 0.101 | 0.694 | 0.601 | 0.139 | 0.156 | 0.993 | 0.93 | 0.898 | 1.03 | 0.721 | 0.866 | 0.807 | 0.766 | 0.834 | 0.791
NCI-H441 | 0.207 | 0.211 | 0.218 | 0.175 | 0.206 | 0.383 | 0.304 | 0.463 | 0.677 | 0.498 | 0.616 | 0.611 | 0.542 | 0.246 | 0.274 | 0.254 | 0.266 | 0.255
NCI-H1944 | 0.227 | 0.173 | 0.179 | 0.17 | 0.653 | 0.26 | 0.195 | 0.205 | 1.02 | 1.05 | 1.12 | 1.02 | 0.938 | 0.703 | 0.478 | 0.676 | 0.583 | 0.613
NCI-H838 | 0.261 | 0.25 | 0.207 | 0.171 | 1.14 | 0.754 | 0.4 | 0.266 | 1.17 | 1.31 | 1.27 | 1.22 | 1.1 | 0.249 | 0.246 | 0.227 | 0.27 | 0.22
